From patent US20080108665A1, “Use of N-substituted sulfoximines for control of invertebrate pests” (priority 2006, published 2008)

Columns and labels:
Type in all cases: in vivo
[1] = test system: Cat Flea (Ctenocephalides felis); experiment: Cat flea filter wool assay; details: 48-hour exposure, mean
Procedure: Compound (2) was evaluated in a dose response series to establish the range of activity of the test compound. Technical material was dissolved in acetone and diluted with the same solvent to obtain the test concentrations. Bioassays were conducted by treating polyester aquarium filter wool with 1.0 ml of the test solution, thoroughly saturating the substrate and allowing it to dry for at least 1 hour. The dry filter wool was then placed into 10 cm plastic Petri dishes and covered with the lid. Each treatment was replicated 5 times. Approximately 15 unfed cat flea adults were placed into each replicate of each dosage being evaluated. Mortality was assessed at 2, 8, 24 and 48 hours after introduction of the fleas into the test system. The mean percent mortality for each dosage group and time interval was determined and results from the 48-hour observation are presented in Table 8.

[2] = test system: Cotton Aphid (Aphis gossypii); experiment: Cotton aphid seed coating assay on squash; details: for % Control, seed coating systemic: 1st leaf infested 13 days after planting
Procedure: Selected compounds of the invention were tested in assays designed to evaluate its systemic activity for control of cotton aphid through seed-coating prior to planting. The crop used in these assays was a hybrid squash (var. Pic-N-Pic). Test compound was formulated in a 10% SC formulation. Ten squash seeds were used for each treatment. Seeds were placed on waxed paper and a pipette was used to apply the original or diluted formulations to each seed. The air-dried, treated seeds were individually planted into 3 inch pots containing metro mix. The pots were placed on a California cart and moved into the greenhouse for sub watering only. At the specified number of days after planting, the plants were infested with approximately 40 wingless aphids. The infested plants were kept in an environmental holding room (23° C., 40% RH, 16 hr light: 8 hr dark) for three days before the number of live aphids was counted under a microscope. Calculations for % Control were based on a corrected basis compared to the populations on the reference plants germinated from seeds treated with the formulation blank.
Corrected % Control=100*(X−Y)/X • where X=No. of live aphids on reference plants • Y=No. of live aphids on treated plants Assay 1. Compounds (1) and (2) were tested at 3 mg/seed. The original 10% SC formulation was used. One half (15 ul) of the sample was spread onto one side of a seed. Once dried (approximately 1 hr), the seed was flipped over and the 2nd half of sample was spread over the other side. Fourteen and 25 days after planting, aphid infestations were conducted on the 1st and 2nd true leaves, respectively.
Assay 2. Compound (2) was tested at 0.1 and 1 mg/seed. For the 1 mg/seed treatment, the original 10% formulation was used. For the 0.1 mg/seed treatment, the 10% formulation were diluted 10× with DI water before application. One half (5 ul) of the sample was spread onto one side of a seed. Once dried (approximately 1 hr), the seed was flipped over and the 2nd half of sample was spread over the other side. Thirteen days after planting, the 1st leaf was infested.

[3] = test system: Bird Cherry-Oat Aphid (Rhopalosiphum padi); experiment: Bird cherry-oat aphid seed coating assay on wheat; details: 1.34 mg/seed, 10% SC formulation, 4 days after infestation
Procedure: Twenty spring wheat (Triticum aestivum var. Yuma) seeds were placed on a waxed paper. A pipette was used to apply a 10% SC formulation of the test compound to each seed. Two application of 6.7 μl each were applied to a seed, waiting until the seed was air-dried between applications. The total amount of active ingredient applied to each seed was 1.34 mg. All coated seeds are planted into 3 inch pots containing greenhouse metro mix, with 4 seeds used in each pot. An appropriate number of untreated seeds was also planted for control. The pots are placed on a California cart and moved into a greenhouse for initial and subsequent sub-watering. When the plants had germinated and grown to the 1-2 leaf unfurled stage, they were infested with bird cherry-oat aphid. The infested plants were held in an environmental chamber (23° C., 40% RH, 16 hr light: 8 hr dark) for 4 days before an assessment of aphid populations was conducted. Calculations for % Control are based on a corrected basis compared to the populations on the untreated controls.
Corrected % Control=100*(X−Y)/X • where X=No. of live aphids on untreated plants • Y=No. of live aphids on treated plants

[4] = test system: Green Peach Aphid (Myzus persicae); experiment: Green peach aphid root uptake assay on pepper; details: 3 days after infestation
Procedure: These assays were designed to evaluate the possibility of using the compounds identified in the foregoing examples for applications such as nursing trays, transplanting water and/or irrigation. Systemic activity against green peach aphid was evaluated in a root uptake assay. Bell peppers (Capsicum annum var. California Wonder) were used as test plants seeded and grown in rock wool plugs. Plants were grown to expanding 1st true leaf stage. The rock wool plugs containing individual plants were placed in 1-ounce cups and surrounded with white clean sand. Five plants were used for each treatment. A volume of 5 mL of the test solutions was applied to each cup (each plant). After insecticide application, the seedlings were infested with green peach aphids and held in a growth chamber (25° C., 50% RH, 16 hr light: 8 hr dark). Number of live aphids on each plant was counted at 3 days after infestation. Calculations for % Control were based on a corrected basis compared to the populations on the reference plants.
Corrected % Control=100*(X−Y)/X • where X=No. of live aphids on reference plants • Y=No. of live aphids on treated plants Assay 1: Compound (3) was tested at a dose range of 5-500 μg/plant. A stock solution of 1000 ppm (1 mg/mL) was made by dissolving technical test compound in acetone:ethanol (90:10). The highest test concentration (100 ppm, 500 μg/5 ml) was prepared by diluting 2.5 mL stock solution with 22.5 mL DI water. The lower test concentrations (25 mL) were similarly prepared by diluting aliquots of the stock solution with DI water. Reference plants received DI water only.
Assay 2: Compound (2) was tested at a dose range of 0.08-50 μg/plant. A stock solution of 1000 ppm was made by dissolving 2 mg of technical test compound in 2 mL acetone. The highest test concentration (10 ppm, 50 μg/5 ml) was prepared by diluting 0.32 mL stock solution with 1.6 mL acetone and 30.08 mL DI water, containing 6% acetone. Lower test concentrations were prepared by sequentially diluting 6.5 mL higher concentration (start from the 10 ppm test solution) with 26.0 ml acetone: DI water (6:94). The solvent/diluent system (6% acetone) was used as reference.

[5] = 3 mg/seed, 10% SC formulation, counted 3 days after infestation

**Q.** Which “% Flea mortality” value ([1]; 5,000.0 ppm) does the source give for CC(c1ccc(Cl)nc1)S(C)(=O)=NC#N (centres unmarked) [Compound 2, [1-(6-chloropyridin-3-yl)ethyl](methyl)oxido-λ^4-sulfanylidenecyanamide] here?
**A.** The value was 100%.

**Q.** What about the mortality at 0.5 ppm ([1]; Ctenocephalides felis, 0.5 ppm) of the same compound?
**A.** The mortality at 0.5 ppm was 52.4%.

**Q.** What about the mortality at 5 ppm ([1]; Ctenocephalides felis, 5.0 ppm) of the same compound?
**A.** Its mortality at 5 ppm is 74.4%.

**Q.** What about the mortality at 50 ppm ([1]; Ctenocephalides felis, 50.0 ppm) of the same compound?
**A.** The mortality at 50 ppm was 76.6%.

**Q.** What about the mortality at 500 ppm ([1]; Ctenocephalides felis, 500.0 ppm) of the same compound?
**A.** The mortality at 500 ppm was 83.8%.

**Q.** What about the “% Control, seed coating systemic” value ([2]; 0.1 mg/seed) of the same compound?
**A.** The value was 36.5%.

**Q.** And the “% Control, seed coating systemic” value ([2]; 1 mg/seed)?
**A.** Its value is 99.8%.

**Q.** What about the “% Control, seed coating systemic 1st leaf, 14 days after planting” value [2, 5] of the same compound?
**A.** Its value is 100%.

**Q.** And the “% Control, seed coating systemic 2nd leaf, 25 days after planting” value [2, 5]?
**A.** Its value is 99.8%.

**Q.** And the “% Control, seed coating systemic” value [3]?
**A.** The value was 100%.

**Q.** What about the “% Control, root uptake systemic” value ([4]; 0.08 μg/plant) of the same compound?
**A.** Its value is 41%.

**Q.** What about the “% Control, root uptake systemic” value ([4]; 0.4 μg/plant) of the same compound?
**A.** The value was 48%.

**Q.** What about the “% Control, root uptake systemic” value ([4]; 2 μg/plant) of the same compound?
**A.** The value was 95%.

**Q.** What about the “% Control, root uptake systemic” value ([4]; 10 μg/plant) of the same compound?
**A.** The value was 99%.
